The NIST ThermoML archive (doi:10.1016/j.jct.2014.11.007)
± gives the expanded uncertainty stated by the source.

What was measured:
[1] = mn = molality of the nth substance listed, in mol/kg; conditions: 100 kPa, Liquid; for speed of sound: Frequency=3 MHz, Sing-around technique in a fixed-path interferometer; for mass density: Vibrating tube method
[2] = 100 kPa, Liquid, Vibrating tube method

SMILES	speed of sound ([1]; 293.15 K, m1 = 0.01) [m/s]	speed of sound ([1]; 293.15 K, m1 = 0.03) [m/s]	speed of sound ([1]; 293.15 K, m1 = 0.05) [m/s]	mass density ([1]; 293.15 K, m1 = 0.03) [kg/m3]	mass density ([1]; 293.15 K, m1 = 0.05) [kg/m3]	speed of sound ([1]; 298.15 K, m1 = 0.01) [m/s]	speed of sound ([1]; 298.15 K, m1 = 0.03) [m/s]	speed of sound ([1]; 298.15 K, m1 = 0.05) [m/s]	mass density ([1]; 298.15 K, m1 = 0.01) [kg/m3]	mass density ([1]; 298.15 K, m1 = 0.03) [kg/m3]	mass density ([1]; 298.15 K, m1 = 0.05) [kg/m3]	speed of sound ([1]; 303.15 K, m1 = 0.01) [m/s]	speed of sound ([1]; 303.15 K, m1 = 0.03) [m/s]	speed of sound ([1]; 303.15 K, m1 = 0.05) [m/s]	mass density ([1]; 303.15 K, m1 = 0.03) [kg/m3]	mass density ([1]; 303.15 K, m1 = 0.05) [kg/m3]	speed of sound ([1]; 308.15 K, m1 = 0.01) [m/s]	speed of sound ([1]; 308.15 K, m1 = 0.03) [m/s]	speed of sound ([1]; 308.15 K, m1 = 0.05) [m/s]	mass density ([1]; 308.15 K, m1 = 0.03) [kg/m3]	also measured
O=C(O)[C@@H]1CCCN1 [L-proline] + O	1483.8 ± 1.6	1485.8 ± 1.6	1487.4 ± 1.6	999.275 ± 0.26	999.919 ± 0.26	1497.8 ± 1.6	1499.8 ± 1.6	1501 ± 1.6	997.474 ± 0.26	998.109 ± 0.26	998.747 ± 0.26	1510.1 ± 1.6	1511.8 ± 1.6	1512.9 ± 1.6	996.709 ± 0.26	997.338 ± 0.26	1520.7 ± 1.6	1522.4 ± 1.6	1523.5 ± 1.6	995.083 ± 0.26	mass density ([1]; 293.15 K, m1 = 0.01): 998.631 ± 0.26 kg/m3; mass density ([1]; 303.15 K, m1 = 0.01): 996.082 ± 0.26 kg/m3; mass density ([1]; 308.15 K, m1 = 0.01): 994.462 ± 0.26 kg/m3; mass density ([1]; 308.15 K, m1 = 0.05): 995.708 ± 0.26 kg/m3; speed of sound ([1]; 313.15 K, m1 = 0.01): 1529.8 ± 1.6 m/s; speed of sound ([1]; 313.15 K, m1 = 0.03): 1531.4 ± 1.6 m/s; speed of sound ([1]; 313.15 K, m1 = 0.05): 1532.3 ± 1.6 m/s; mass density ([1]; 313.15 K, m1 = 0.01): 992.639 ± 0.26 kg/m3; mass density ([1]; 313.15 K, m1 = 0.03): 993.259 ± 0.26 kg/m3; mass density ([1]; 313.15 K, m1 = 0.05): 993.88 ± 0.26 kg/m3
NCC(=O)O [2-aminoacetic acid] + O	1483.7 ± 1.5	1484.5 ± 1.5	1485.7 ± 1.5	999.313 ± 0.2	999.93 ± 0.2	1497.8 ± 1.5	1498.5 ± 1.5	1499.6 ± 1.5	997.478 ± 0.2	998.145 ± 0.2	998.761 ± 0.2	1510.2 ± 1.5	1510.9 ± 1.5	1511.9 ± 1.5	996.744 ± 0.2	997.353 ± 0.2	1520.8 ± 1.5	1521.5 ± 1.5	1522.5 ± 1.5	995.118 ± 0.2	speed of sound ([1]; 313.15 K, m1 = 0.01): 1529.8 ± 1.5 m/s; speed of sound ([1]; 313.15 K, m1 = 0.03): 1530.5 ± 1.5 m/s; speed of sound ([1]; 313.15 K, m1 = 0.05): 1531.5 ± 1.5 m/s; mass density ([1]; 313.15 K, m1 = 0.03): 993.306 ± 0.2 kg/m3; mass density ([1]; 313.15 K, m1 = 0.05): 993.898 ± 0.2 kg/m3
O [water]	–	–	–	–	–	–	–	–	–	–	–	–	–	–	–	–	–	–	–	–	mass density ([2]; 293.15 K): 998.272 ± 0.2 kg/m3; mass density ([2]; 308.15 K): 994.108 ± 0.2 kg/m3; mass density ([2]; 313.15 K): 992.29 ± 0.2 kg/m3
